Measured values published in patent US10689622B2, “Culture medium for proliferating stem cell, which contains sulfated compound” (AJINOMOTO CO., INC., priority 2012, dated 2020).

How the values were obtained:
[1] = target: T1, bFGF (Homo sapiens, UniProt P09038); assay: Evaluation of bFGF stabilization in Lonza serum-free medium (ELISA); type: biochemical; conditions: for bFGF concentration relative to that of 4° C. control (ELISA): Lonza serum-free medium, 37° C. for 7 days; for effectiveness ELISA: effectiveness in ELISA evaluation of mesenchymal stem cells (medium), 4° C. control ratio
T1 construct: purchased Lonza (via TAKARA BIO INC.) Ser. No. 00/190,632
Procedure, shortened: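 Compound in PBS diluted 10-fold into serum-free medium and held sealed at 37 °C for 7 days (some sets 3 days). Remaining bFGF quantified by human bFGF sandwich ELISA against a standard curve. Controls were compound-free PBS-medium kept at 37 °C or 4 °C for the same period.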

[2] = tested on: Human bone marrow-derived mesenchymal stem cells; assay: Mesenchymal stem cell proliferation system (cell number by DNA quantification); conditions: growth of mesenchymal stem cell, control ratio
[3] = target: T1, bFGF; assay: Evaluation of bFGF stabilization in Essential 8 medium (ELISA); type: biochemical; conditions: 37° C. for 7 days
Procedure, shortened: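 Test compound in PBS diluted 10-fold into serum-free medium (Essential 8 or ReproFF2), held sealed at 37° C for 7 days; remaining bFGF quantified by ELISA against a standard curve. Controls: PBS without compound diluted into each medium, held 7 days at 37° C or 4° C.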

[4] = Measurement of content level of sulfur in test compound (ICP); type: physicochemical; conditions: ICPS-8100, evaluation samples containing 0.01 wt % test compound
From the text: (§1) The content level of sulfur in the sulfated saccharide is generally not less than 5 wt %, preferably not less than 10 wt %, more preferably not less than 15 wt %, and the upper limit is generally not more than 40 wt %, preferably not more than 35 wt %, more preferably not more than 30 wt %. […] Here, the content level of sulfur is a proportion in wt % of sulfur derived only from the sulfate group in sulfated saccharides, which can be measured by a method known in the field (e.g., rhodizonate method, elemental analysis or luminescent spectral analysis).
as §1, with “polymer” for “saccharide”, “wt” for “wt %, preferably not more than 35 wt %, more preferably not more than 30 wt”, “in” for “derived only from”, “the” for “the sulfate group in”, “polymer,” for “saccharides,”, “such as” for “(e.g.,”
The relationship between the content level of sulfur in a test compound (sulfur content) and the cell proliferation promoting effect was examined. The sulfur content was measured using ICPS-8100 manufactured by SHIMADZU CORPORATION and analyzed using ICPS-8000 series Ver1.03. As the reference standard of sulfur, the standard for ICP-MS manufactured by Accu Standard was used. Sulfur reference standard solutions (0, 1, 10, 30, 50 ppm) were prepared, and the sulfur content of the evaluation samples containing 0.01 wt % test compound was measured by an analytical curve method.

T1 sequence (P09038 143-288): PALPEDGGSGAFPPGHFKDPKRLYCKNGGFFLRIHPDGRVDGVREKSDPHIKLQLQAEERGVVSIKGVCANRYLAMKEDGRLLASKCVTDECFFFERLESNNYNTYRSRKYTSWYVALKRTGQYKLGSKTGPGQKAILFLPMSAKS

| Substance | bFGF concentration relative to that of 4° C. control (ELISA) ([1]; test compound 25 ng/ml) | bFGF concentration relative to that of 4° C. control (ELISA) ([1]; test compound 250 ng/ml) | bFGF concentration relative to that of 4° C. control (ELISA) ([1]; test compound 25 μg/ml) | bFGF concentration relative to that of 4° C. control (ELISA) ([1]; test compound 250 μg/ml) | effectiveness ELISA [1] | effectiveness cells [2] | concentration showing a suppressive effect on a decrease in the bFGF concentration of the medium [3] | bFGF concentration relative to that of 4° C. control (ELISA) ([3]; test compound 250 pg/ml) | bFGF concentration relative to that of 4° C. control (ELISA) ([3]; test compound 25 ng/ml) | bFGF concentration relative to that of 4° C. control (ELISA) ([3]; test compound 250 ng/ml) | bFGF concentration relative to that of 4° C. control (ELISA) ([3]; test compound 25 μg/ml) | bFGF concentration relative to that of 4° C. control (ELISA) ([3]; test compound 250 μg/ml) | sulfur content Found (inorganic analysis) [4] | concentration at which a decrease in the protein amount of FGF is not suppressed ([1]; as shown in the Examples (methods of Examples I-1 and II-1)) |
| --- | --- | --- | --- | --- | --- | --- | --- | --- | --- | --- | --- | --- | --- | --- |
| maltitol SO3Na | x (bFGF concentration was less than 10% relative to that of 4 °C control) | ++ (bFGF concentration was not less than 50% and less than 70% relative to that of 4 °C control) | +++ (bFGF concentration was not less than 70% relative to that of 4 °C control) | ++ (bFGF concentration was not less than 50% and less than 70% relative to that of 4 °C control) | +++ (+++ 70%<) | ⊚ (⊚ not less than 120%) | not less than 2.5 μg/ml | x (bFGF concentration was less than 10% relative to that of 4 °C control) | x (bFGF concentration was less than 10% relative to that of 4 °C control) | x (bFGF concentration was less than 10% relative to that of 4 °C control) | + (bFGF concentration was not less than 30% and less than 50% relative to that of 4 °C control) | + (bFGF concentration was not less than 30% and less than 50% relative to that of 4 °C control) | 17 wt % | – |
| gluconolactone-SO3Na | x (bFGF concentration was less than 10% relative to that of 4 °C control) | x (bFGF concentration was less than 10% relative to that of 4 °C control) | ++ (bFGF concentration was not less than 50% and less than 70% relative to that of 4 °C control) | x (bFGF concentration was less than 10% relative to that of 4 °C control) | ++ (++ 50%<) | ◯ (◯ not leas than 100%) | not less than 25 μg/ml | x (bFGF concentration was less than 10% relative to that of 4 °C control) | x (bFGF concentration was less than 10% relative to that of 4 °C control) | x (bFGF concentration was less than 10% relative to that of 4 °C control) | ++ (bFGF concentration was not less than 50% and less than 70% relative to that of 4 °C control) | +++ (bFGF concentration was not less than 70% relative to that of 4 °C control) | 14 wt % | not more than 2.5 μg/ml |
